Assay results: PubChem BioAssay (NCI)
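Interpolation was linear, between the two tested concentrations surrounding the appropriate level; five concentrations were tested over 48 hours in 96-well plates. The concentration for full growth arrest is given as TGI.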

Experiments:
Test in all cases: NCI tumour cell line growth inhibition, 48 h
[1] = test system: DMS 114 small cell lung
[2] = test system: M19-MEL melanoma
[3] = test system: CAKI-1 renal
[4] = test system: ACHN renal
[5] = test system: SK-MEL-2 melanoma
[6] = test system: A498 renal

Measured: TGI

OC12c3ccccc3C1CCCCCCCCCC21OCCCO1 (stereo unspecified)
> 100 µM: [1] | [2]

CCOC(=O)c1csc(NC(=O)CN2CCCCC2)n1
> 100 µM: [3] | [4] | [5] | [6]
